This is an account of results in publication PMC10202292, “The exquisite specificity of human protein arginine methyltransferase 7 (PRMT7) toward Arg-X-Arg sites” (PLOS ONE, 2023).

Data set [1] deals with T1, GST-HsPRMT7 (Homo sapiens, UniProt Q9NVM4).
T1 construct: full-length human PRMT7 (residues 1–692); 34693; host or cells: E. coli BL21 DE3
T1 sequence (Q9NVM4 1-692): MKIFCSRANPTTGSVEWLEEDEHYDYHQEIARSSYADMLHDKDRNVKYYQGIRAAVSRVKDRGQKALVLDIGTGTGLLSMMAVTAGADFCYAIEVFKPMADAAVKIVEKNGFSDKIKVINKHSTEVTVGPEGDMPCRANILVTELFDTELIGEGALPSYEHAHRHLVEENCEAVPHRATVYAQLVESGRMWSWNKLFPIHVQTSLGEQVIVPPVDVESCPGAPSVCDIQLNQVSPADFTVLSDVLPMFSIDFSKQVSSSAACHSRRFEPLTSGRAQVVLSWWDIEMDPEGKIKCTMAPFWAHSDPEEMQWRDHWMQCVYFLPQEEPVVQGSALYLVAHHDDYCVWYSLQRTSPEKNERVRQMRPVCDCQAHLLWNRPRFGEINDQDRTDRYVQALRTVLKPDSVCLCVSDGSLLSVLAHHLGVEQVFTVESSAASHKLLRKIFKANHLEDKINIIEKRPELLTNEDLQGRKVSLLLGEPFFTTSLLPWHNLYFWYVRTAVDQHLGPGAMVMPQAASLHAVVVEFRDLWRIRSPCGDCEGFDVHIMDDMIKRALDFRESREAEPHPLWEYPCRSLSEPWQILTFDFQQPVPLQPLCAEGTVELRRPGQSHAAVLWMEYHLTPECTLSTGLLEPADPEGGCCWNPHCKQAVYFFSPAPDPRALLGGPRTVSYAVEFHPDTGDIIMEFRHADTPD
As to the kind of experiment: P81 phosphocellulose filter paper methylation assay with peptide substrates (cpm, end point and time course). The data set is classed as biochemical. The note with it: 10 μM peptide. On the procedure:
(§1) In vitro methylation assays were performed with GST-HsPRMT7, the indicated substrate protein or peptide, and 1.4 μM S-adenosyl-L-[methyl-^3H]methionine ([^3H]-AdoMet; PerkinElmer cat no. NET155V), prepared from diluting a stock of 7.0 μM [^3H]-AdoMet (81.9 Ci/mmol, 1 mCi/mL in 9:1 10 mM H2SO4:EtOH, v/v) in 10 mM HCl. All reactions were performed using distilled water buffered with 50 mM potassium HEPES, pH 9.5 and 1 mM DTT, reaching a final reaction volume of 30 μL. The reactions were initiated by adding [^3H]-AdoMet to a final concentration of 0.14 μM. Control reactions (enzyme-only, substrate-only) contained distilled water instead of substrate or GST-HsPRMT7, respectively. After initiation with [^3H]-AdoMet, all reactions analyzed via P81 phosphocellulose filter paper assay were incubated in a water bath at 25°C unless otherwise indicated for the specified time periods and were terminated with 0.5 μL 100% (w/v) trifluoroacetic acid (TFA). P81 assays performed at t = 0 were individually terminated immediately following initiation. Samples analyzed via SDS-PAGE were incubated at 4°C for 24 hours and were quenched by adding 5x SDS sample loading buffer (250 mM Tris-HCl, pH 6.8; 10% SDS, 30% glycerol, 10% β-mercaptoethanol, 0.2% bromophenol blue), followed by heating at 97°C for 3 min.
(§2) In vitro methylation assays with GST-HsPRMT7, selected methyl-accepting substrates, and [^3H]-AdoMet were set up as described previously and performed in triplicate. Following incubation at 25°C unless otherwise indicated for the time periods specified, all samples were quenched with 0.5 μL 100% TFA and centrifuged at 9,300 g for 10 seconds in an Eppendorf centrifuge (Model 5417C). 1 cm^2 pieces of P81 phosphocellulose filter paper (LabAlley catalog no. 05-717-2A) were spotted with 25 μL from each reaction mixture and set to dry overnight. The following day, all filter paper pieces were washed three times with 50 mM sodium bicarbonate solution, pH 9.0, and dried again in liquid scintillation vials. After 5 mL of Safety Solve fluor (RPI industries) was added to each vial, [^3H] radioactivity in each sample was quantified via liquid scintillation counter (Beckman LS6500) for four total cycles at 5 minutes per sample. All data presented are expressed as averages of the cpm from cycles 2–4.
(§3) Statistical analyses were performed using the “Analyze Data” function on GraphPad Prism v.8.0.1. To determine statistical significance, unpaired homoscedastic two-tailed Student’s t tests were performed with significance level α = 0.05 with the relevant data. To obtain apparent km and Vmax values, kinetic data were analyzed by non-linear regression using the Michaelis-Menten equation.

Data set [2] deals with T1, GST-HsPRMT7. As to the kind of experiment: Michaelis-Menten kinetics of peptide substrate methylation (P81 phosphocellulose paper assay). The data set is classed as biochemical. Also noted: key to Vmax, Michaelis-Menten best-fit value, Fig7 / Vmax, Michaelis-Menten best-fit value, Fig8: Vmax expressed as cpm (averages of cycles 2–4). On the procedure: as §1, §2, §3
Data set [3] deals with human PRMT7. The note with it: addition of 50 mM NaCl or KCl; cited from earlier work. How it is done: Comparatively, a previous study of ionic strength in human HEK293 cells estimates the intracellular concentration of potassium ions to be about 120–140 mM in human cells. As such, our results in Fig 7 led us to question whether this dramatic decrease in activity may be associated with a loss of either substrate-enzyme binding affinity or catalytic activity. || We confirm that human PRMT7 activity is quite sensitive to changes in the RXR target sequence in the substrate protein. […] The exquisite specificity of PRMT7 toward the basic RXR motif can be contrasted to the much broader speci ...

Data set [4] deals with PRMT9. The note with it: methylation of SF3B2 at Arg508 (505-CFKRKYL-511); cited from earlier work. The source says: We confirm that human PRMT7 activity is quite sensitive to changes in the RXR target sequence in the substrate protein. […] The exquisite specificity of PRMT7 toward the basic RXR motif can be contrasted to the much broader speci ...

For orientation: Km means the concentration of substrate that gives half-maximal velocity.

Read-outs that look alike come from different tables or passages of the source.

Consider “Ac-KKDGKKRKRSRKESY-NH2 [Hs H2B (23–37), synthetic peptide of amino acids 23–37 of human histone H2B, PRMT7 substrate used as positive control, reference compound]”, for which the methylation activity entry in data set [1] (5 μg GST-HsPRMT7, 0.14 μM [3H]-AdoMet, 25°C, 1 hour (Fig 4), approximate) is reported as “approximately 6,000 cpm”. Further, in data set [1] (5 μg GST-HsPRMT7, 0.14 μM [3H]-AdoMet, 25°C, t = 120 min (Fig 6), approximate), the “methylation activity (maximum value)” value was “about 4,000 cpm”. In data set [1] (5 μg GST-HsPRMT7, 0.14 μM [3H]-AdoMet, 25°C, t = 3 hours (Fig 4), approximate), the “methylation activity (maximum)” value is on record as “approximately 8,000 cpm”. In data set [1] (5 μg GST-HsPRMT7, 0.14 μM [3H]-AdoMet, 40 min, 25°C (Fig 3), in words), the GST-HsPRMT7 methylation activity entry is “highest”. Besides, the PRMT7 methylation activity entry in data set [1] (5 μg GST-HsPRMT7, 0.14 μM [3H]-AdoMet, 20 h, 4°C (Fig 5), in words) is “highest PRMT7 methylation activity”. Moreover, in data set [1] (mean of n = 3, 40 min, 25°C), the “Mean of GST-HsPRMT7 + peptide, Fig3” value came to 1604 cpm. Further, the “Difference between means ± SEM vs peptide only, Fig3” value in data set [1] (n = 3, 40 min, 25°C, SEM) stood at 1523 ± 86.54 cpm. Further, the Km in data set [2] (+ 130 mM KCl, 5 μg GST-HsPRMT7, 0.14 μM [3H]-AdoMet, 60 min, 25°C, GraphPad Prism fit, read-out: Km, Michaelis-Menten best-fit value, Fig8) was 16.8 µM; in data set [2] (+130 mM KCl, apparent km, 5 μg GST-HsPRMT7, various peptide concentrations, 0.14 μM [3H]-AdoMet, 60 min, 25°C, pH 9.5, Michaelis-Menten fit, triplicates (Fig 8), read-out: km) it was 17 µM; in data set [2] (no added salt, apparent km of peptide substrate, 5 μg GST-HsPRMT7, various peptide concentrations, 0.14 μM [3H]-AdoMet, 60 min, 25°C, pH 9.5, Michaelis-Menten fit, triplicates (Fig 8), read-out: km), 0.6 µM; in data set [2] (no salt, 5 μg GST-HsPRMT7, 0.14 μM [3H]-AdoMet, 60 min, 25°C, GraphPad Prism fit, read-out: Km, Michaelis-Menten best-fit value, Fig8), 0.558 µM. Besides, in data set [2] (no salt, 5 μg GST-HsPRMT7, 0.14 μM [3H]-AdoMet, 60 min, 25°C, GraphPad Prism fit), the “Vmax, Michaelis-Menten best-fit value, Fig8” value stood at 17053. The “increase of apparent km on adding 130 mM KCl” value in data set [2] (with vs without 130 mM KCl (Fig 8, Table 2)) is recorded as 30 fold. The “change of Vmax after adding 130 mM KCl” value in data set [2] (with vs without 130 mM KCl (Fig 8, Table 2), in words) was “relatively unchanged”. Moreover, in data set [3], the “change of GST-HsPRMT7 activity on addition of salt” value was “decreases by half”.

B1: SF3B2: splicing factor SF3B2, methylated by PRMT9 at Arg508 (protein, UniProt Q13435 1-895, looked up)
Splicing factor 3B subunit 2: MATEHPEPPKAELQLPPPPPPGHYGAWAAQELQAKLAEIGAPIQGNREELVERLQSYTRQTGIVLNRPVLRGEDGDKAAPPPMSAQLPGIPMPPPPLGLPPLQPPPPPPPPPPGLGLGFPMAHPPNLGPPPPLRVGEPVALSEEERLKLAQQQAALLMQQEERAKQQGDHSLKEHELLEQQKRAAVLLEQERQQEIAKMGTPVPRPPQDMGQIGVRTPLGPRVAAPVGPVGPTPTVLPMGAPVPRPRGPPPPPGDENREMDDPSVGPKIPQALEKILQLKESRQEEMNSQQEEEEMETDARSSLGQSASETEEDTVSVSKKEKNRKRRNRKKKKKPQRVRGVSSESSGDREKDSTRSRGSDSPAADVEIEYVTEEPEIYEPNFIFFKRIFEAFKLTDDVKKEKEKEPEKLDKLENSAAPKKKGFEEEHKDSDDDSSDDEQEKKPEAPKLSKKKLRRMNRFTVAELKQLVARPDVVEMHDVTAQDPKLLVHLKATRNSVPVPRHWCFKRKYLQGKRGIEKPPFELPDFIKRTGIQEMREALQEKEEQKTMKSKMREKVRPKMGKIDIDYQKLHDAFFKWQTKPKLTIHGDLYYEGKEFETRLKEKKPGDLSDELRISLGMPVGPNAHKVPPPWLIAMQRYGPPPSYPNLKIPGLNSPIPESCSFGYHAGGWGKPPVDETGKPLYGDVFGTNAAEFQTKTEEEEIDRTPWGELEPSDEESSEEEEEEESDEDKPDETGFITPADSGLITPGGFSSVPAGMETPELIELRKKKIEEAMDGSETPQLFTVLPEKRTATVGGAMMGSTHIYDMSTVMSRKGPAPELQGVEVALAPEELELDPMAMTQKYEEHVREQQAQVEKEDFSDMVAEHAAKQKQKKRKAQPQDSRGGSKKYKEFKF
In the case of B1, the Km in data set [4] was 0.08 µM.
